Measurements: PMC3041857 (Journal of medicinal chemistry, 2011)

Key:
[1] = test system: PrP^Sc load in ScN2a-cl3 cells; assay type: cell-based, murine
[2] = mouse, in vivo

Row | Molecule | Antiprion activity (in words) [1] | further results
1 | COc1ccc(-c2csc(Nc3cccc(C)n3)n2)cc1OC [Compound 4, [4-(3,4-dimethoxyphenyl)-thiazol-2-yl]-(6-methylpyridin-2-yl)-amine] | equipotent to 3 | –
2 | CNc1nc(-c2ccc(OC)c(OC)c2)cs1 [Compound 5, 4-(3,4-dimethoxyphenyl)-N-methyl-1,3-thiazol-2-amine] | without significant activity | –
3 | Cc1ccc(Nc2nc(-c3cc(-c4ccccc4)no3)cs2)nc1 [Compound 27, (5-Methylpyridin-2-yl)-[4-(3-phenylisoxazol-5-yl)-thiazol-2-yl]-amine] | – | Mean brain concentration in excess of in vitro EC50 ([2]; FVB): ≤ 25 fold; Brain versus plasma concentration [2]: generally exceeded those in plasma
4 | Cc1ccc(Nc2nc(C)cs2)nc1 [Compound 29, (5-Methylpyridin-2-yl)-(4-methylthiazol-2-yl)-amine] | inactive | –
5 | FC(F)(F)Oc1ccc(-c2csc(Nc3cc4ccccc4cn3)n2)cc1 [Compound 31, Isoquinolin-3-yl-[4-(4-trifluoromethoxyphenyl)-thiazol-2-yl]-amine] | inactive | –
6 | Cc1csc(Nc2cc3ccccc3cn2)n1 [Compound 36, Isoquinolin-3-yl-(4-methylthiazol-2-yl)-amine] | inactive | –
7 | [4-(3,4-dimethoxyphenyl)-thiazol-2-yl]-pyridin-3-yl-amine [Compound 7] | – | EC50 ([1]; read-out: ScN2a-cl3 EC50): 1220 nM
